{
  "source": "patent EP0167553B1",
  "about": "“NEW THERAPEUTICAL APPLICATION OF AN INDANE DIONE DERIVATIVE AND PHARMACEUTICAL COMPOSITIONS INTENDED TO SAID UTILIZATION” (priority 1983, dated 1985)",
  "format_in_all_cases": "in vivo",
  "key": {"Rat Wistar": {"tested_on": "Rat Wistar", "experiment": "Hyperlipidaemia induced by Triton WR 1339 injection", "parameters": "Triglycérides, score par rapport au Procétofène 250 mg/kg: scale not given here", "description": "L'hyperlipidémie par injection de Triton WR 1339 (marque de fabrique), réalisée chez le Rat Wistar, est antagonisée ou diminuée par l'administration d'agents hypolipémiants.\n• - Rats Wistar mâles. • - Poids corporel: 150 -180 grammes. • - Animaux E.O.P.S. (Exempts d'Organisme Pathogène Spécifique). • - Alimentation UAR A04 • - Eau de boisson à volonté • - 6 animaux par lot de traitement et par cage MAKROLON SAFI (marque de fabrique) 60 X 40 cm, sur litière de copeaux de bois dépoussiérés • - Cages placées dans un module animalerie climatisé (19 à 21°C) à degré hygrométrique constant (40 à 60 p.100), dans lequel l'air est renouvelé 10 fois par heure, 12 heures d'éclairement par jour.\n• . - 18 h: mise à jeun. • . Temps 0 - administration du Triton WR 1339® (400 mg/kg IP.). • . + 10 mn: administration du produit étudié. • - + 6 h: 1er prélèvement sanguin au sinus rétro-orbitaire. • . + 24 h: 2ème prélèvement sanguin au sinus rétro-orbitaire.\nL'essai comporte 8 lots dont un lot témoin (animaux sains) et un lot témoin triton (Tableau I)."}, "Rat sain": {"tested_on": "Rat sain", "experiment": "Chronic administration, maximum tolerated dose in the rat", "settings": "administration chronique", "description": "(§1) • - Le comportement et l'[…] pondérale des animaux sont étudiés par l'observation quotidienne et les pesées hebdomadaires. L'étude de l'évolution pondérale ne montre pas de différence significative entre les différents lots. C'est un indice de bonne tolérance du traitement. • - La moralité est notée dans chaque lot; elle peut atteindre 30 % des animaux ce qui nécessite des lots de 15 animaux. L'administration chronique de 100 mg/kg de Clofibrate correspond à la dose maximale tolérée par le Rat sain selon nos expériences personnelles."}, "[1]": {"experiment": "Chronic administration, maximum tolerated dose in the rat", "settings": "rat, in vivo, administration chronique, read-out: dose maximale tolérée", "description": "as §1"}, "[2]": {"settings": "125 mg/kg, 6 heures after Triton"}, "[3]": {"settings": "125 mg/kg, 24 heures after Triton"}, "[4]": {"settings": "250 mg/kg, 6 heures after Triton"}, "[5]": {"settings": "250 mg/kg, 24 heures after Triton"}, "[6]": {"settings": "500 mg/kg, 6 heures after Triton"}, "[7]": {"settings": "500 mg/kg, 24 heures after Triton"}, "[8]": {"settings": "750 mg/kg, 6 heures after Triton"}, "[9]": {"settings": "750 mg/kg, 24 heures after Triton"}},
  "data": [
    {"smiles": "COc1ccc(C(=O)CC2(O)C(=O)c3ccccc3C2=O)cc1OC", "note": "[Produit de l'invention, 2-[(3,4-dimethoxybenzoyl)methyl] 2-hydroxy 1,3-dioxo indane]", "values": [
      {"measurement": "Chol. Total, score par rapport au Procétofène 250 mg/kg", "setting": "Rat Wistar; [2]", "value": 2.44},
      {"measurement": "Score Total par rapport au Procétofène 250 mg/kg", "setting": "Rat Wistar; [2]", "value": 2.75},
      {"measurement": "Triglycérides, score par rapport au Procétofène 250 mg/kg", "setting": "Rat Wistar; [2]", "value": 0.31},
      {"measurement": "Chol. HDL/ LDL, score par rapport au Procétofène 250 mg/kg", "setting": "Rat Wistar; [3]", "value": 1.40},
      {"measurement": "Chol. Total, score par rapport au Procétofène 250 mg/kg", "setting": "Rat Wistar; [3]", "value": 0.28},
      {"measurement": "Score Total par rapport au Procétofène 250 mg/kg", "setting": "Rat Wistar; [3]", "value": 1.94},
      {"measurement": "Triglycérides, score par rapport au Procétofène 250 mg/kg", "setting": "Rat Wistar; [3]", "value": 0.26},
      {"measurement": "Chol. HDL/ LDL, score par rapport au Procétofène 250 mg/kg", "setting": "Rat Wistar; [4]", "value": 0.87},
      {"measurement": "Chol. Total, score par rapport au Procétofène 250 mg/kg", "setting": "Rat Wistar; [4]", "value": 1.15},
      {"measurement": "Lipides Totaux, score par rapport au Procétofène 250 mg/kg", "setting": "Rat Wistar; [4]", "value": 0.92},
      {"measurement": "Score Total par rapport au Procétofène 250 mg/kg", "setting": "Rat Wistar; [4]", "value": 3.74},
      {"measurement": "Triglycérides, score par rapport au Procétofène 250 mg/kg", "setting": "Rat Wistar; [4]", "value": 0.80},
      {"measurement": "Chol. HDL/ LDL, score par rapport au Procétofène 250 mg/kg", "setting": "Rat Wistar; [5]", "value": 1.10},
      {"measurement": "Chol. Total, score par rapport au Procétofène 250 mg/kg", "setting": "Rat Wistar; [5]", "value": 1.13},
      {"measurement": "Lipides Total, score par rapport au Procétofène 250 mg/kg", "setting": "Rat Wistar; [5]", "value": 1.56},
      {"measurement": "Score Total par rapport au Procétofène 250 mg/kg", "setting": "Rat Wistar; [5]", "value": 4.64},
      {"measurement": "Triglycérides, score par rapport au Procétofène 250 mg/kg", "setting": "Rat Wistar; [5]", "value": 0.85},
      {"measurement": "Chol. HDL/ LDL, score par rapport au Procétofène 250 mg/kg", "setting": "Rat Wistar; [6]", "value": 2.00},
      {"measurement": "Chol. Total, score par rapport au Procétofène 250 mg/kg", "setting": "Rat Wistar; [6]", "value": 0.35},
      {"measurement": "Lipides Totaux, score par rapport au Procétofène 250 mg/kg", "setting": "Rat Wistar; [6]", "value": 1.00},
      {"measurement": "Score Total par rapport au Procétofène 250 mg/kg", "setting": "Rat Wistar; [6]", "value": 4.95},
      {"measurement": "Triglycérides, score par rapport au Procétofène 250 mg/kg", "setting": "Rat Wistar; [6]", "value": 1.60},
      {"measurement": "Chol. HDL/ LDL, score par rapport au Procétofène 250 mg/kg", "setting": "Rat Wistar; [7]", "value": 0.80},
      {"measurement": "Chol. Total, score par rapport au Procétofène 250 mg/kg", "setting": "Rat Wistar; [7]", "value": 0.75},
      {"measurement": "Lipides Total, score par rapport au Procétofène 250 mg/kg", "setting": "Rat Wistar; [7]", "value": 1.62},
      {"measurement": "Score Total par rapport au Procétofène 250 mg/kg", "setting": "Rat Wistar; [7]", "value": 3.66},
      {"measurement": "Triglycérides, score par rapport au Procétofène 250 mg/kg", "setting": "Rat Wistar; [7]", "value": 0.49},
      {"measurement": "Chol. Total, score par rapport au Procétofène 250 mg/kg", "setting": "Rat Wistar; [8]", "value": 0.78},
      {"measurement": "Lipides Totaux, score par rapport au Procétofène 250 mg/kg", "setting": "Rat Wistar; [8]", "value": 0.14},
      {"measurement": "Score Total par rapport au Procétofène 250 mg/kg", "setting": "Rat Wistar; [8]", "value": 1.72},
      {"measurement": "Triglycérides, score par rapport au Procétofène 250 mg/kg", "setting": "Rat Wistar; [8]", "value": 0.80},
      {"measurement": "Chol. HDL/ LDL, score par rapport au Procétofène 250 mg/kg", "setting": "Rat Wistar; [9]", "value": 0.40},
      {"measurement": "Chol. Total, score par rapport au Procétofène 250 mg/kg", "setting": "Rat Wistar; [9]", "value": 0.61},
      {"measurement": "Score Total par rapport au Procétofène 250 mg/kg", "setting": "Rat Wistar; [9]", "value": 1.73},
      {"measurement": "Triglycérides, score par rapport au Procétofène 250 mg/kg", "setting": "Rat Wistar; [9]", "value": 0.72},
      {"measurement": "hyperlipémie provoquée par le Triton WR 1339", "setting": "Rat Wistar; dès la dose de 125 mg/kg par voie orale, Rat", "value": "antagonisée au diminuée"}
    ]},
    {"smiles": "CCOC(=O)C(C)(C)Oc1ccc(Cl)cc1", "note": "[Clofibrate]", "values": [
      {"measurement": "dose maximale tolérée", "setting": "Rat sain", "value": 100, "unit": "mg/kg"},
      {"measurement": "MTD", "setting": "[1]", "value": "~100", "unit": "mg/kg"}
    ]}
  ]
}
